Legend:
Assay type in all cases: biochemical
[1] = target: T1, Thrombin (Homo sapiens, UniProt P00734); experiment: HPLC-PDA-MS-bioassay, thrombin inhibition
T1 construct: Xa with factor Va converts prothrombin (II) to thrombin (IIa)
Experimental: (§1) An aliquot of sample was injected onto C18 reversed-phase column with flow rate of 1 mL/min. Mass spectra were recorded from 150 to 1000 amu in both positive and negative modes using electrospray ionization. A splitter was attached immediately after the HPLC column so that a fraction of the eluent was directed towards the electrospray source. The remaining fraction was collected in deep-well plates. The plates were dried overnight and biassayed.

[2] = system: Trypsin; experiment: HPLC-PDA-MS-bioassay, trypsin inhibition
Experimental: as §1

[3] = target: T2, TF/VIIa (Homo sapiens, UniProt P08709); experiment: Factor VIIa/TF inhibitory assay (chromogenic substrate, OD 405 nm); settings: recombinant human factor VIIa with recombinant soluble tissue factor
T2 construct: recombinant human factor VIIa
Experimental: To determine inhibitory activity, the compound having structure (1) was combined with recombinant human factor VIIa in black clear bottom well plates followed by a 10 minute room temperature incubation. Recombinant soluble tissue factor was then added followed by a 15 minute room temperature incubation. Finally, chromozymen tPA substrate was added and the plates were immediately read at 405 nm to determine background absorbance. After incubation, the rate of hydrolysis of the substrate was measured by monitoring the reaction at 405 nm for the release of p-nitroaniline. Percent inhibition of TF/VIIa activity was calculated from OD 405 nm value from the experimental and control sample. All hits 50% of control and less were confirmed and requested for IC50 values.
as §1

[4] = target: Xa (Homo sapiens, UniProt P00742); experiment: HPLC-PDA-MS-bioassay, factor Xa inhibition
Experimental: as §1

Sequence of Xa (P00742 41-179 limits assumed): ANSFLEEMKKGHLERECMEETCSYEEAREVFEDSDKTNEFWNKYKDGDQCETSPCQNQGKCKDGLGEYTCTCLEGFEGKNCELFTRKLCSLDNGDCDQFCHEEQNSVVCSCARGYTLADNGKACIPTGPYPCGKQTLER
Sequence of Xa (P00742 235-488 limits assumed): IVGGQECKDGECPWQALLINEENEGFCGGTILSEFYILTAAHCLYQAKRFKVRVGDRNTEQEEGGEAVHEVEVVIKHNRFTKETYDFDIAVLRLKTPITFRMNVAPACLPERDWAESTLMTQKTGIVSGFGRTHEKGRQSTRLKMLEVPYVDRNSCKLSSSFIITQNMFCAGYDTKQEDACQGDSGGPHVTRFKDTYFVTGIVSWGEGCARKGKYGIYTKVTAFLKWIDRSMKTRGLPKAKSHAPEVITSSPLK
T2 sequence (P08709 61-212 limits assumed): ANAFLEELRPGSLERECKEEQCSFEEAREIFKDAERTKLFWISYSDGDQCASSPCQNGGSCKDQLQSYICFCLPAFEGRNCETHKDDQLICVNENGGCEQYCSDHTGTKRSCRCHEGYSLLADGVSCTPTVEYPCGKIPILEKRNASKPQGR
T2 sequence (P08709 213-466 limits assumed): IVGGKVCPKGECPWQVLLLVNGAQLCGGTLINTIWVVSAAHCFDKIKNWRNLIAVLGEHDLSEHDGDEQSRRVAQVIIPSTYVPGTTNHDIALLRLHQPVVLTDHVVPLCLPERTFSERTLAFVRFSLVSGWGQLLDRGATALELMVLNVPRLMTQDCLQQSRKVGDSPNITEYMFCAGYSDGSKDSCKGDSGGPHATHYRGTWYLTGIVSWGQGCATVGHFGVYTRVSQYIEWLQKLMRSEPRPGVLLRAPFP
T2 sequence (P13726 33-251 partner limits assumed): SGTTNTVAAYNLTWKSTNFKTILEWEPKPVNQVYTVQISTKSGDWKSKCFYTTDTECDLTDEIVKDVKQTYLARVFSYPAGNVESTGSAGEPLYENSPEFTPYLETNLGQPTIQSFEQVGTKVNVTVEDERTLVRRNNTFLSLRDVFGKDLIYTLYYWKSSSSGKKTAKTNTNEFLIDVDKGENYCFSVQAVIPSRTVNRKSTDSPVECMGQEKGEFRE

IC50 [1]: 4 nM
IC50 [2]: 37 nM
IC50 [3]: 9 nM
IC50 [4]: 200 nM
Structure (SMILES): COC(COS(=O)(=O)O)C(=O)NC(C(=O)N1C(C(=O)NCCC2=CCN(C(=N)N)C2)CC2CC(O)C(O)CC21)C(Cl)C(C)C (stereo not shown) [Structure 1]

— patent US6939565B2, “Protease inhibitors of the coagulation cascade isolated from Dysidea sponges” (Pharmacia Corporation, priority 2001, dated 2005)
